What was measured:
Assay in all cases: relative viability (nuclei count vs DMSO), 5 days (fraction); higher = more cells survive
[1] = compound: COc1cc2nccc(Oc3ccc(NC(=O)C4(C(=O)Nc5ccc(F)cc5)CC4)cc3)c2cc1OC [Cabozantinib] + C[C@]1(O)C[C@@H](c2nc(-c3ccc4ccc(-c5ccccc5)nc4c3)c3c(N)nccn32)C1 [Linsitinib] (partner 1 µM)
In short: (§1)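 Relative viability was taken as the ratio of nuclei in treated wells to nuclei in vehicle wells. Lung cancer cell lines in 1536-well plates received compounds by pin tool one day after seeding, either one drug alone or a fixed anchor-drug dose plus five library-drug doses (not always all listed) in √10 steps. Nuclei were counted on 4× images after 5 days of treatment, and values are medians of duplicate plates.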

Zosuquidar + Phenformin = compound: O[C@@H](COc1cccc2ncccc12)CN1CCN([C@@H]2c3ccccc3[C@@H]3[C@H](c4ccccc42)C3(F)F)CC1 [Zosuquidar] + N=C(N)NC(=N)NCCc1ccccc1 [Phenformin] (partner 250 µM)
In short: as §1

Kobe2602 + Tozasertib = compound: C1=CC(=CC=C1NC(=S)NNC2=C(C=C(C=C2[N+](=O)[O-])C(F)(F)F)[N+](=O)[O-])F [Kobe2602] + Cc1cc(Nc2cc(N3CCN(C)CC3)nc(Sc3ccc(NC(=O)C4CC4)cc3)n2)n[nH]1 [Tozasertib] (partner 0.1 µM)
In short: as §1

Kobe2602 + Vorinostat = compound: C1=CC(=CC=C1NC(=S)NNC2=C(C=C(C=C2[N+](=O)[O-])C(F)(F)F)[N+](=O)[O-])F [Kobe2602] + O=C(CCCCCCC(=O)Nc1ccccc1)NO [Vorinostat] (partner 1 µM)
In short: as §1

Cell Line	relative viability ([1]; first compound 0.02 µM)	relative viability ([1]; first compound 0.06325 µM)	relative viability ([1]; first compound 0.2 µM)	relative viability ([1]; first compound 0.6325 µM)	relative viability ([1]; first compound 2 µM)	relative viability (Zosuquidar + Phenformin; first compound 0.01 µM)	relative viability (Zosuquidar + Phenformin; first compound 0.03162 µM)	relative viability (Zosuquidar + Phenformin; first compound 0.1 µM)	relative viability (Zosuquidar + Phenformin; first compound 0.3162 µM)	relative viability (Zosuquidar + Phenformin; first compound 1 µM)	relative viability (Kobe2602 + Tozasertib; first compound 0.2 µM)	relative viability (Kobe2602 + Tozasertib; first compound 0.6325 µM)	relative viability (Kobe2602 + Tozasertib; first compound 2 µM)	relative viability (Kobe2602 + Tozasertib; first compound 6.325 µM)	relative viability (Kobe2602 + Tozasertib; first compound 20 µM)	relative viability (Kobe2602 + Vorinostat; first compound 0.2 µM)	relative viability (Kobe2602 + Vorinostat; first compound 0.6325 µM)	relative viability (Kobe2602 + Vorinostat; first compound 2 µM)	relative viability (Kobe2602 + Vorinostat; first compound 6.325 µM)	relative viability (Kobe2602 + Vorinostat; first compound 20 µM)
LC-2-ad	0.846	0.795	0.659	0.56	0.461	0.584	0.561	0.576	0.626	0.55	0.478	0.534	0.489	0.453	0.472	0.664	0.706	0.719	0.649	0.722
LCLC-97TM1	–	0.187	0.2	0.195	0.204	0.409	0.442	0.46	0.454	0.445	0.219	0.292	0.175	0.186	0.196	0.692	0.893	–	0.964	0.722
LCLC-103H	1.21	1.01	1.07	0.986	1.05	0.306	0.314	0.255	0.356	0.331	0.498	0.535	0.469	0.436	0.479	0.802	0.813	0.776	0.839	0.81
LK-2	0.724	0.73	0.619	0.633	0.716	0.413	0.412	0.549	0.67	0.475	0.174	0.188	0.189	0.174	0.174	0.295	0.334	0.376	0.305	0.551
LOU-NH91	0.928	1.09	0.537	0.939	0.95	0.62	0.702	–	0.768	0.692	0.703	0.703	0.658	0.685	0.739	0.886	1.02	0.837	0.905	0.863
LU99A	0.547	0.513	0.516	0.452	0.435	0.859	0.793	0.834	0.971	0.808	0.287	0.323	0.286	0.237	0.298	0.491	0.493	0.539	0.51	0.53
LXF-289	1.02	0.966	0.971	0.983	0.94	0.52	0.502	0.484	0.543	0.5	0.192	0.191	0.181	0.203	0.185	0.677	0.776	0.75	0.659	0.775
NCI-H23	–	0.687	0.561	0.473	0.48	0.722	0.708	0.78	0.895	0.805	0.464	0.342	0.308	0.829	0.236	0.616	0.645	0.628	0.544	0.729
NCI-H322M	0.95	1	–	0.96	0.954	0.809	0.856	0.586	0.793	0.858	0.518	0.534	0.493	0.538	0.533	0.958	1.03	0.851	0.849	0.921
NCI-H358	0.833	0.868	0.851	0.735	0.736	0.278	0.293	0.281	0.359	0.335	0.0888	0.122	0.0944	0.109	0.103	0.706	0.733	0.586	0.719	0.689
NCI-H441	0.53	0.721	0.686	0.46	0.418	0.903	0.845	0.643	0.832	0.916	0.692	0.638	0.543	0.708	0.635	0.756	0.711	0.808	0.646	0.697
NCI-H460	0.941	0.89	0.83	0.805	0.797	0.48	0.508	0.445	0.529	0.498	0.342	0.402	0.411	0.154	0.0739	–	0.702	0.705	0.724	0.68
NCI-H520	0.923	1.05	0.938	0.796	0.815	0.567	0.579	–	0.658	0.565	0.519	0.507	0.402	0.38	0.481	0.702	0.775	0.637	0.691	0.731
NCI-H596	1.19	1.17	1.11	0.997	0.994	0.765	–	0.798	0.909	0.761	0.763	0.763	0.813	0.798	0.746	0.591	0.726	0.63	0.659	0.68
NCI-H647	1.28	1.53	1.33	1.12	1.11	0.531	0.39	0.453	0.592	0.462	0.213	0.315	0.181	0.192	0.347	0.613	0.582	0.64	0.583	0.601
NCI-H650	0.846	1.02	1.05	0.971	0.774	0.464	0.42	0.379	0.482	0.448	0.738	0.757	0.746	0.789	0.623	0.466	0.411	0.421	0.499	0.434
NCI-H661	0.621	0.503	0.557	0.455	0.413	0.267	0.254	0.275	0.275	0.27	0.382	0.34	0.376	0.376	0.355	0.777	0.799	0.753	0.825	0.827
NCI-H727	0.323	0.231	0.282	0.22	0.309	0.318	0.563	0.466	0.522	0.519	0.716	0.583	0.741	0.702	0.504	1.18	1.31	1.06	–	1.55
NCI-H838	1.03	1.04	1.1	0.943	0.821	0.568	0.418	0.432	0.663	0.576	0.242	0.249	0.242	0.255	0.254	0.68	0.767	0.654	0.703	0.683
NCI-H1355	0.827	0.855	0.799	0.806	0.697	0.466	0.438	0.371	0.502	0.471	0.587	0.597	0.534	0.534	0.542	0.589	0.687	0.577	0.588	0.622
NCI-H1395	1.25	1.27	1	1.13	0.958	0.44	0.482	0.418	0.497	0.466	0.72	0.793	0.878	0.741	0.776	0.786	1.04	0.733	0.666	0.93
NCI-H1437	1.12	1.26	1.06	1.13	0.982	0.31	0.327	0.287	0.313	0.328	0.429	0.403	0.412	0.322	0.439	0.855	0.739	0.78	0.791	0.625
NCI-H1651	1.06	0.969	1.06	0.958	0.733	0.314	0.343	0.282	0.401	0.307	0.683	0.681	0.621	0.584	0.774	0.601	0.448	0.583	0.551	0.751
NCI-H1666	1.05	0.819	0.847	0.811	0.925	0.542	0.577	0.571	0.584	0.521	0.644	0.61	0.571	0.604	0.544	1.06	1.04	1.13	1.01	0.981
NCI-H1734	0.959	0.916	0.929	0.831	0.517	0.395	0.372	0.407	0.466	0.385	0.282	0.252	0.24	0.28	0.246	0.863	0.912	0.844	0.841	0.8
NCI-H1755	0.982	0.967	0.965	0.841	0.834	0.425	0.621	0.489	0.624	0.589	0.638	0.596	0.557	0.608	0.554	0.743	0.743	0.671	0.744	0.802
NCI-H1793	1.21	1.01	0.7	0.814	0.65	0.387	0.346	–	0.469	0.359	0.279	0.305	0.292	0.417	0.278	0.702	0.881	0.764	0.795	0.936

— the supplement of paper PMC10307832
